Results from the supplement of paper PMC12463676, “Small-molecule dissolution of stress granules by redox modulation benefits ALS models” (Nature Chemical Biology, 2025).

Assays:
[1] = compound: O=[As]([O-])(O)O.[K+] [potassium arsenate]; assay: thermal stability z-score vs DMSO; higher = more thermally stabilized by treatment; details: HeLa; arsenate concentration 1 mM
Description: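 Cellular thermal proteome profiling in HeLa cells treated with 1 mM arsenate for 1 h (DMSO pretreatment), heated to ten temperatures (37-66.3 °C). Soluble protein was quantified by TMT mass spectrometry relative to DMSO controls; the thermal stability score was transformed to a z-score; mean of n = 3 experiments.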

[2] = compound: NC(=O)CCCCC1CCSS1 [lipoamide]; assay: as above; details: HeLa, lipoamide concentration 100 µM
Description: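 Cellular thermal proteome profiling in HeLa cells. Cells were treated with 100 µM lipoamide for 1 h, with or without 1 mM arsenate for a further 1 h, then heated to ten temperatures (37-66.3 °C), and soluble protein was quantified by TMT mass spectrometry relative to 0.1% DMSO controls. The thermal stability score (sum of log2 fold changes minus the abundance score) was transformed to a z-score; mean of n = 3 experiments.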

[3] = arsenate co-treatment: 1 mM arsenate 1 h
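Note: each temperature applied for 3 min, abundance score taken as mean log2 fold change at the two lowest temperatures, z-score obtained by mean subtraction and division by SD.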

Sequence of UniProt O95071 (O95071 whole entry): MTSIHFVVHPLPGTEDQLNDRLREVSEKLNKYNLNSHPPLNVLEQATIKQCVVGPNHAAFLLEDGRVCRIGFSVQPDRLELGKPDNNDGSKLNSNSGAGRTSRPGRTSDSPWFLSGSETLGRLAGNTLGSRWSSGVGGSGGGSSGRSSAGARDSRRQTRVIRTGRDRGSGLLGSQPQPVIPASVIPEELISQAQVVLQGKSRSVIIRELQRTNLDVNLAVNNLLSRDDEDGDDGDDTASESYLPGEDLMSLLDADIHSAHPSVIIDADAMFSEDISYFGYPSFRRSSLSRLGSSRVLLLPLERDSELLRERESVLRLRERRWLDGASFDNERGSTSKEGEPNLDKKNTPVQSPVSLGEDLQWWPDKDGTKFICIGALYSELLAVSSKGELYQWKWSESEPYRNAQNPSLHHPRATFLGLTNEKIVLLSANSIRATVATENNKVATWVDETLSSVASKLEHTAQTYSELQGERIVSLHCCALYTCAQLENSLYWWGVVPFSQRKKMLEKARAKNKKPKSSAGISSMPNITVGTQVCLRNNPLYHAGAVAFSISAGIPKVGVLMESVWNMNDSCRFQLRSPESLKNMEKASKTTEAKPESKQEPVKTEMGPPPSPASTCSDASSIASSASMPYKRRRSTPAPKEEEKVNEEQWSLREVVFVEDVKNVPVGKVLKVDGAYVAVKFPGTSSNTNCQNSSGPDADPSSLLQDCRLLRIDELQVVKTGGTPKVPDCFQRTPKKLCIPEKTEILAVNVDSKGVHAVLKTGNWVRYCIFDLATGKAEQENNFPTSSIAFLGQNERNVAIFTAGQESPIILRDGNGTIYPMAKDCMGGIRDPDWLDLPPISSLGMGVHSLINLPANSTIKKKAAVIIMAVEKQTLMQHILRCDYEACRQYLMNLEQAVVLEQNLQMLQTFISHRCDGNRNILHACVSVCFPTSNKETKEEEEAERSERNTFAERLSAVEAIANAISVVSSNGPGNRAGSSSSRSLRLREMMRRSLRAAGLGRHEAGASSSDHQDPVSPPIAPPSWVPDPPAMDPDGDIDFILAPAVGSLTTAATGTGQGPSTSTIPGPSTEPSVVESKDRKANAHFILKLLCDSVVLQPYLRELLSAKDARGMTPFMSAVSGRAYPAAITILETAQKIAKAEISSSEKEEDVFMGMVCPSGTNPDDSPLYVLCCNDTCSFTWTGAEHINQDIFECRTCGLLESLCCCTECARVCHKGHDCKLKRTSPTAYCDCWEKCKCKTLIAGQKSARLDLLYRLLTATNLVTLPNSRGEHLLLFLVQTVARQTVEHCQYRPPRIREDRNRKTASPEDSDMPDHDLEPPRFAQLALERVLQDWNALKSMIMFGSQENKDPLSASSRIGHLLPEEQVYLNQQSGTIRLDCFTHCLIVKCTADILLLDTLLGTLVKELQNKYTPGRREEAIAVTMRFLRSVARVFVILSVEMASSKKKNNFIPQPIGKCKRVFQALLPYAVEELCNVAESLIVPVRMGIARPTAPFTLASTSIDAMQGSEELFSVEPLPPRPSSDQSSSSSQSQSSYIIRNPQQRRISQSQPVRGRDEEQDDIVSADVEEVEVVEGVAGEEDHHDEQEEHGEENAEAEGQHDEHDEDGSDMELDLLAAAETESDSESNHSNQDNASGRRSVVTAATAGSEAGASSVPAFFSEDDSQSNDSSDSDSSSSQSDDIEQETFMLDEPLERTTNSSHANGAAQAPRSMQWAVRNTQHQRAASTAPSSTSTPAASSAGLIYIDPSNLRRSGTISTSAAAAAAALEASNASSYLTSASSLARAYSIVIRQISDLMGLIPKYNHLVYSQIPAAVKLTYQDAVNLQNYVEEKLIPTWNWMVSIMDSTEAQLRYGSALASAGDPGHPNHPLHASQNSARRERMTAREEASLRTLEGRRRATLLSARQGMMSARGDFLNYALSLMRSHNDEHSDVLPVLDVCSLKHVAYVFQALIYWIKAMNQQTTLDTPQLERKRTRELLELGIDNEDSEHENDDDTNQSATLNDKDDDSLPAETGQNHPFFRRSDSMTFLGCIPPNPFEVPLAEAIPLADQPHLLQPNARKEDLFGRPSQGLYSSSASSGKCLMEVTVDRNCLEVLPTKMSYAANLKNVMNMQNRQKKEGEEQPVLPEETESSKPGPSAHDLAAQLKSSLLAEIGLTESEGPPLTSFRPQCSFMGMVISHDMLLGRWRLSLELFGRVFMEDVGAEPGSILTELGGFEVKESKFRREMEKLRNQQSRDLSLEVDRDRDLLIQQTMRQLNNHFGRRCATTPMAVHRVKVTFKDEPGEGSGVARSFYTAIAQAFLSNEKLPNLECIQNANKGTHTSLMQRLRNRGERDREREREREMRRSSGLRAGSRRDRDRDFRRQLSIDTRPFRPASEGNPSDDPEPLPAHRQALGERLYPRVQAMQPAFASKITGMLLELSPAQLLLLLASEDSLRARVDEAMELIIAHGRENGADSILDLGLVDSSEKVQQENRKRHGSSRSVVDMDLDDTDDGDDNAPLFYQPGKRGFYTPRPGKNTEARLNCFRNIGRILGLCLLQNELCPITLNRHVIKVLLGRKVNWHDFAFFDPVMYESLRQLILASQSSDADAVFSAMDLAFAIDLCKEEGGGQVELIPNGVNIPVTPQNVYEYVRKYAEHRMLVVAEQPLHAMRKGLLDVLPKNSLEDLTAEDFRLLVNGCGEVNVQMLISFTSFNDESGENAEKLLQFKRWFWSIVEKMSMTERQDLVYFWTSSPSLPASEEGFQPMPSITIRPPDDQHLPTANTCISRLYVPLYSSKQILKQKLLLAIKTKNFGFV
Sequence of UniProt Q05519 (Q05519 whole entry): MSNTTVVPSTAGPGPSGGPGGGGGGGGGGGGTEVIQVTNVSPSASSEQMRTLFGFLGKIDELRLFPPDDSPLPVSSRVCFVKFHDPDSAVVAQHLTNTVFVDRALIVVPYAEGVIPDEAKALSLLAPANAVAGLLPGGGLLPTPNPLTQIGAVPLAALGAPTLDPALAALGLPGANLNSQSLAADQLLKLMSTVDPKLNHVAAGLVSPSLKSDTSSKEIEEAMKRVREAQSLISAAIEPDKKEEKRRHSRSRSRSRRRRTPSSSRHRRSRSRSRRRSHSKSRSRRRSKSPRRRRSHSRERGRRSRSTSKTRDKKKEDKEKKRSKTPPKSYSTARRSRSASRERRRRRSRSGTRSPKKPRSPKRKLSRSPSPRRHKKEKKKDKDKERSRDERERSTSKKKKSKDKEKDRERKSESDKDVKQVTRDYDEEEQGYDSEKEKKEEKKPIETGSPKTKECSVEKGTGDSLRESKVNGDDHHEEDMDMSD
Sequence of UniProt O00566 (O00566 whole entry): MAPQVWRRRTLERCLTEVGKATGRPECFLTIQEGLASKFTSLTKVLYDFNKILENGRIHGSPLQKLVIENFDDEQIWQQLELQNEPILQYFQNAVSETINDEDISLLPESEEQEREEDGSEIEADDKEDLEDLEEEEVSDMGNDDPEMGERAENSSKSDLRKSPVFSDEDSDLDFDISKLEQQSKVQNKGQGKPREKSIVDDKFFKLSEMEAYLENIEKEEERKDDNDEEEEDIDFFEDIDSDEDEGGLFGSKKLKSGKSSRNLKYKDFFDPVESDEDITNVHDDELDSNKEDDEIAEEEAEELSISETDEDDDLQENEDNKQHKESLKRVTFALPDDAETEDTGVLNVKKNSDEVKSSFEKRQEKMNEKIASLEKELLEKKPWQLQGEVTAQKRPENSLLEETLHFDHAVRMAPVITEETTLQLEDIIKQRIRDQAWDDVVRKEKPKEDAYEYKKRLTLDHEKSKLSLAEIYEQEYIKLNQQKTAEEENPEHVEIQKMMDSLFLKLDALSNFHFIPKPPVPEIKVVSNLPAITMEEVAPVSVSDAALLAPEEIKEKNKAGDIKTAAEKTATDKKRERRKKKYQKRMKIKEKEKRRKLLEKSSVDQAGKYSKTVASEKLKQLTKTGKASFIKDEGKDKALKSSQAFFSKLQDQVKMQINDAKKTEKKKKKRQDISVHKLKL
Sequence of UniProt O75964 (O75964 whole entry): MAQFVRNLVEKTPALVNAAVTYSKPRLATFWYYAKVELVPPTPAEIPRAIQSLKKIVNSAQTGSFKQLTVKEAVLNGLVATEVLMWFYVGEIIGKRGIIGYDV
Sequence of UniProt P11234 (P11234 whole entry): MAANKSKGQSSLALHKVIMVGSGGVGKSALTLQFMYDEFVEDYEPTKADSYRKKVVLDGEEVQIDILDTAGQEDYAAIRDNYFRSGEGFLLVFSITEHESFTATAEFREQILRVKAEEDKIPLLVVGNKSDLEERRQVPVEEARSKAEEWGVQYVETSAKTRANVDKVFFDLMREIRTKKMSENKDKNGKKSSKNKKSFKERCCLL
Sequence of UniProt A6NIH7 (A6NIH7 whole entry): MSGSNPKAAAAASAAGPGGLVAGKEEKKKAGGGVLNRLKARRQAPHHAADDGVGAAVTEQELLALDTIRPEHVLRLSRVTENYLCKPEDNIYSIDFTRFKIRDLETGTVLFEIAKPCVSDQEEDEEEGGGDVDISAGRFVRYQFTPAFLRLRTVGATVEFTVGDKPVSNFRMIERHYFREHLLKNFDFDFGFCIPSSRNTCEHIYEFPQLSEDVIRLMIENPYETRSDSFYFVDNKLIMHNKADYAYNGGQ
Sequence of UniProt Q4VC31 (Q4VC31 whole entry): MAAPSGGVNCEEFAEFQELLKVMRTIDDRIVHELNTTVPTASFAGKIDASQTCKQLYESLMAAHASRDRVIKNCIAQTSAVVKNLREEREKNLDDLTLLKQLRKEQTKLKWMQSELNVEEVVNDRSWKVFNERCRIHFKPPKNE
Sequence of UniProt O00762 (O00762 whole entry): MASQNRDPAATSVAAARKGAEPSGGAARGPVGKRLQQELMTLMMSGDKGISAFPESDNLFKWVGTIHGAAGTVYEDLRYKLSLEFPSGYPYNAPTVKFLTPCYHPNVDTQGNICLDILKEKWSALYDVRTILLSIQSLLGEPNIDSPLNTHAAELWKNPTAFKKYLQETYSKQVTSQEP
Sequence of UniProt Q3ZCW2 (Q3ZCW2 whole entry): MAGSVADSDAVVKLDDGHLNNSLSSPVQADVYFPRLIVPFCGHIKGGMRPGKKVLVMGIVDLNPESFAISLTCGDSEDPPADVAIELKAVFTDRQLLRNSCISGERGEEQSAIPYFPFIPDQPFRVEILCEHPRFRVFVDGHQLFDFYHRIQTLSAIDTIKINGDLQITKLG

| Target | thermal stability z-score [1] | thermal stability z-score [2, 3] | thermal stability z-score ([2]; arsenate co-treatment: none) |
| --- | --- | --- | --- |
| UNC119B (UniProt A6NIH7) | -0.0898 | 1.07 | 0.468 |
| LRCH4 (UniProt O75427) | -0.13 | 0.0394 | -0.101 |
| TSR3 (UniProt Q9UJK0) | -1.75 | -0.214 | -0.723 |
| ATG2B (UniProt Q96BY7) | -0.0277 | -0.149 | 0.0605 |
| AEBP2 (UniProt Q6ZN18) | -0.00304 | -0.0576 | -0.195 |
| ME2 (UniProt P23368) | -1.26 | 0.621 | -0.0427 |
| LGALSL (UniProt Q3ZCW2) | 0.19 | 0.209 | 0.257 |
| FAM206A (UniProt Q9NX38) | 0.249 | -0.0394 | -0.233 |
| APP (UniProt P05067) | 0.137 | -1.82 | -1.75 |
| MTA2 (UniProt O94776) | -0.245 | 0.669 | 0.591 |
| LMNA (UniProt P02545) | -0.488 | 0.567 | 0.493 |
| RAD1 (UniProt O60671) | 1.31 | 1.26 | 0.445 |
| IFT81 (UniProt Q8WYA0) | -0.072 | -0.223 | -0.039 |
| RBFOX2 (UniProt O43251) | 0.171 | -0.112 | 0.314 |
| STRBP (UniProt Q96SI9) | 0.571 | 0.867 | 0.71 |
| UBE2C (UniProt O00762) | 0.4 | 0.263 | -0.139 |
| HOOK3 (UniProt Q86VS8) | -0.272 | -0.807 | -0.326 |
| PITPNC1 (UniProt Q9UKF7) | -0.255 | -0.545 | -0.37 |
| CNOT11 (UniProt Q9UKZ1) | 0.0729 | -0.0705 | 0.0824 |
| UBE2H (UniProt P62256) | 0.295 | 0.213 | -0.108 |
| LUZP1 (UniProt Q86V48) | -0.191 | -0.424 | -0.079 |
| CHAMP1 (UniProt Q96JM3) | -0.567 | -0.202 | -0.497 |
| OCIAD2 (UniProt Q56VL3) | 0.549 | 0.194 | 0.205 |
| TNK1 (UniProt Q13470) | -0.0895 | 0.0556 | 0.223 |

| Target | thermal stability z-score [1] | thermal stability z-score [2, 3] | thermal stability z-score ([2]; arsenate co-treatment: none) |
| --- | --- | --- | --- |
| TMA7 (UniProt Q9Y2S6) | 0.111 | 0.356 | 0.314 |
| MPHOSPH10 (UniProt O00566) | 0.849 | 0.544 | 0.827 |
| GMPPA (UniProt Q96IJ6) | -0.0973 | -0.54 | -1.04 |
| RUFY1 (UniProt Q96T51) | 0.39 | -0.702 | -0.00916 |
| MTCL1 (UniProt Q9Y4B5) | -1.54 | -0.242 | 0.0775 |
| ATPAF1 (UniProt Q5TC12) | -0.64 | -0.471 | -0.084 |
| A0A087WZ62 | 0.358 | 0.00979 | 0.224 |
| UBR5 (UniProt O95071) | 1.13 | -0.165 | -0.0498 |
| TGS1 (UniProt Q96RS0) | 1.17 | -0.109 | -0.175 |
| RALB (UniProt P11234) | 0.0205 | 0.25 | -0.129 |
| RPS29 (UniProt P62273) | -0.415 | 1.14 | 1.17 |
| PREX1 (UniProt Q8TCU6) | -0.0577 | 0.02 | 0.0645 |
| DICER1 (UniProt Q9UPY3) | -0.398 | 0.656 | 0.00487 |
| LNP (UniProt Q9C0E8) | -0.997 | -1.09 | -0.771 |
| MRPS22 (UniProt P82650) | -0.109 | -0.329 | 0.295 |
| TNFAIP3 (UniProt P21580) | -0.522 | -0.409 | -0.303 |
| ATP5L (UniProt O75964) | 0.595 | 0.758 | -1.18 |
| TPPP (UniProt O94811) | -0.479 | -0.836 | 0.123 |
| SRSF11 (UniProt Q05519) | 0.0211 | 0.00966 | 0.41 |
| YARS (UniProt P54577) | 2.64 | 0.161 | 0.213 |
| AGO2 (UniProt Q9UKV8) | -0.204 | 0.826 | 0.402 |
| HAUS7 (UniProt Q99871) | -0.0643 | 0.0237 | -0.0345 |
| MRPL49 (UniProt Q13405) | -0.254 | -0.298 | 0.49 |
| MGEA5 (UniProt O60502) | -0.187 | -0.365 | -0.157 |

| Target | thermal stability z-score [1] | thermal stability z-score [2, 3] | thermal stability z-score ([2]; arsenate co-treatment: none) |
| --- | --- | --- | --- |
| NFYB (UniProt P25208) | -0.691 | 0.446 | 0.825 |
| HEXA (UniProt P06865) | -0.0764 | -0.146 | -0.412 |
| PGP (UniProt A6NDG6) | -0.245 | 0.339 | -0.0409 |
| CUL2 (UniProt Q13617) | -0.256 | 0.23 | 0.0777 |
| TAX1BP1 (UniProt Q86VP1) | 0.997 | -0.152 | 0.411 |
| RBM10 | 1.25 | 3.5 | 2.13 |
| TPD52 (UniProt P55327) | 1.35 | 2.04 | 2.1 |
| FBXW11 (UniProt Q9UKB1) | 0.814 | 0.162 | -0.0669 |
| ZWILCH (UniProt Q9H900) | -0.55 | -0.3 | -0.512 |
| FBXL17 (UniProt Q9UF56) | -0.139 | 0.0273 | -0.0196 |
| EXOSC1 (UniProt Q9Y3B2) | -0.615 | 0.0998 | -1.26 |
| TMEM161A (UniProt Q9NX61) | 0.0752 | -0.0739 | -0.0906 |
| ACADVL (UniProt P49748) | -0.558 | -0.94 | -1.06 |
| PDXK (UniProt O00764) | -0.829 | -0.427 | -0.245 |
| PDF (UniProt Q9HBH1) | -0.495 | -0.494 | -0.231 |
| HNRNPU (UniProt Q00839) | 0.509 | 0.572 | 1.39 |
| CCDC58 (UniProt Q4VC31) | 0.303 | 0.552 | 0.284 |
| EHD1 (UniProt Q9H4M9) | -0.0304 | -0.0636 | 0.13 |
| CTNNBL1 (UniProt Q8WYA6) | -0.00699 | -0.0207 | 0.00313 |
| WRNIP1 (UniProt Q96S55) | 0.0587 | -0.272 | -0.113 |
| PAF1 (UniProt Q8N7H5) | -0.714 | 0.0739 | -0.631 |
| CALD1 (UniProt Q05682) | 0.103 | 0.261 | 0.218 |
| CAV1 (UniProt Q03135) | 1.02 | 0.49 | 0.74 |
| CPSF1 (UniProt Q10570) | -0.123 | 0.324 | 0.168 |
